Results reported in ChEMBL document CHEMBL4477199, “Design and synthesis of novel bicalutamide and enzalutamide derivatives as antiproliferative agents for the treatment of prostate cancer” (Eur J Med Chem, 2016).

What was measured:
[1] = 33000 µM
Description: Solubility in 100% DMSO at 33 mM at -20 degC

[2] = system: VCaP; assay: Antiproliferative activity against human VCaP cells after 96 hrs by propidium iodide staining based fluorescence 2D monolayer assay; format: functional, cell-based
[3] = 96 h
Description: Solubility in RPMI1640 culture medium at <30 uM incubated for 4 days by microscopic analysis

[4] = system: DU-145; assay: Antiproliferative activity against human DU145 cells after 96 hrs by propidium iodide staining based fluorescence 2D monolayer assay; format: functional, cell-based; settings: DU-145, 96 h
[5] = system: LNCaP; assay: Antiproliferative activity against human LNCAP cells after 96 hrs by propidium iodide staining based fluorescence 2D monolayer assay; format: functional, cell-based
[6] = system: CWR22R; assay: Antiproliferative activity against human 22Rv1 cells after 96 hrs by propidium iodide staining based fluorescence 2D monolayer assay; format: functional, cell-based; settings: 22Rv1, 96 h

CC(O)(COc1cccc(OC(F)(F)F)c1)C(=O)Nc1ccc(C#N)c(C(F)(F)F)c1 (stereo not drawn)
solubility [1]: Soluble
IC50 [2]: 9.91 µM
solubility [3]: Soluble
IC50 [4]: 16.4 µM
IC50 [5]: 9.83 µM
IC50 [6]: 9.79 µM

CC(O)(COc1ccccc1C(F)(F)F)C(=O)Nc1ccc(C#N)c(C(F)(F)F)c1 (stereo not drawn)
solubility [1]: Soluble
IC50 [2]: 16.6 µM
solubility [3]: Soluble
IC50 [4]: 17.3 µM
IC50 [5]: 9.68 µM
IC50 [6]: 11.6 µM

C[C@](O)(CS(=O)(=O)c1ccc(F)cc1F)C(=O)Nc1ccc(C#N)c(C(F)(F)F)c1
solubility [1]: Soluble
IC50 [2]: 60.9 µM
solubility [3]: Soluble
IC50 [4]: 60.2 µM
IC50 [5]: 42.3 µM
IC50 [6]: 42.2 µM

CC(O)(COc1ccc(C#N)cc1)C(=O)Nc1ccc([N+](=O)[O-])c(C(F)(F)F)c1 (stereo not drawn)
solubility [1]: Soluble
IC50 [2]: 26.9 µM
solubility [3]: Soluble
IC50 [4]: 32.7 µM
IC50 [5]: 18.7 µM
IC50 [6]: 30.9 µM

CC(O)(CS(=O)(=O)c1ccccc1C(F)(F)F)C(=O)Nc1ccc([N+](=O)[O-])cc1C(F)(F)F (stereo not drawn)
solubility [1]: Soluble
IC50 [2]: 38.6 µM
solubility [3]: Soluble
IC50 [4]: 46.1 µM
IC50 [5]: 20.5 µM
IC50 [6]: 28.3 µM

CC(O)(CS(=O)(=O)c1ccc(F)c(F)c1)C(=O)Nc1ccc([N+](=O)[O-])cc1C(F)(F)F (stereo not drawn)
solubility [1]: Soluble
IC50 [2]: 37.3 µM
solubility [3]: Soluble
IC50 [4]: 48.1 µM
IC50 [5]: 19.5 µM
IC50 [6]: 33.6 µM

CC1(C)C(=O)N(c2cccc(C(F)(F)F)c2)C(=O)N1c1ccc([N+](=O)[O-])c(C(F)(F)F)c1
solubility [1]: Soluble
IC50 [2]: 100 µM
solubility [3]: Soluble
IC50 [4]: 100 µM
IC50 [5]: 15.2 µM
IC50 [6]: 100 µM

CC(O)(CS(=O)(=O)c1ccccc1OC(F)(F)F)C(=O)Nc1ccc([N+](=O)[O-])cc1C(F)(F)F (stereo not drawn)
solubility [1]: Soluble
IC50 [2]: 51.7 µM
solubility [3]: Soluble
IC50 [4]: 39 µM
IC50 [5]: 17.8 µM
IC50 [6]: 28.8 µM

CC(O)(COc1ccc(F)cc1F)C(=O)Nc1ccc([N+](=O)[O-])c(C(F)(F)F)c1 (stereo not drawn)
solubility [1]: Soluble
IC50 [2]: 20.9 µM
solubility [3]: Soluble
IC50 [4]: 22.4 µM
IC50 [5]: 10.1 µM
IC50 [6]: 20.2 µM

C[C@](O)(CSc1ccc(F)cc1F)C(=O)Nc1ccc(C#N)c(C(F)(F)F)c1
solubility [1]: Soluble
IC50 [2]: 18.3 µM
solubility [3]: Soluble
IC50 [4]: 28.5 µM
IC50 [5]: 25.2 µM
IC50 [6]: 17.2 µM

CC(O)(COc1ccc(F)cc1F)C(=O)Nc1ccc(C#N)c(C(F)(F)F)c1 (stereo not drawn)
solubility [1]: Soluble
IC50 [2]: 38.7 µM
solubility [3]: Soluble
IC50 [4]: 44.3 µM
IC50 [5]: 37.3 µM
IC50 [6]: 34 µM

C[C@](O)(CS(=O)(=O)c1ccccc1C(F)(F)F)C(=O)Nc1ccc(C#N)c(C(F)(F)F)c1
solubility [1]: Soluble
IC50 [2]: 37.3 µM
solubility [3]: Soluble
IC50 [4]: 44.3 µM
IC50 [5]: 32.2 µM
IC50 [6]: 34.8 µM

CC(O)(CSc1ccc(C(F)(F)F)cc1)C(=O)Nc1ccc([N+](=O)[O-])c(C(F)(F)F)c1 (stereo not drawn)
solubility [1]: Soluble
IC50 [2]: 21.2 µM
solubility [3]: Soluble
IC50 [4]: 22.5 µM
IC50 [5]: 28.7 µM
IC50 [6]: 16.4 µM

CC(O)(COc1ccc(C(F)(F)F)cc1)C(=O)Nc1ccc(C#N)cc1C(F)(F)F (stereo not drawn)
solubility [1]: Soluble
IC50 [2]: 23 µM
solubility [3]: Soluble
IC50 [4]: 32.4 µM
IC50 [5]: 28.6 µM
IC50 [6]: 29.9 µM

CC1(C)C(=O)N(c2cccc(C(F)(F)F)c2)C(=O)N1c1ccc(C(F)(F)F)cc1
solubility [1]: Soluble
IC50 [2]: 100 µM
solubility [3]: Soluble
IC50 [4]: 100 µM
IC50 [5]: 16.6 µM
IC50 [6]: 92.5 µM

CC(O)(COc1ccc(C(F)(F)F)cn1)C(=O)Nc1ccc(C#N)cc1C(F)(F)F (stereo not drawn)
solubility [1]: Soluble
IC50 [2]: 100 µM
solubility [3]: Soluble
IC50 [4]: 100 µM
IC50 [5]: 100 µM
IC50 [6]: 100 µM

CC(O)(CSc1ccc(F)c(F)c1)C(=O)Nc1ccc([N+](=O)[O-])cc1C(F)(F)F (stereo not drawn)
solubility [1]: Soluble
IC50 [2]: 100 µM
solubility [3]: Soluble
IC50 [4]: 100 µM
IC50 [5]: 83 µM
IC50 [6]: 83.6 µM

CC(O)(COc1ccc(F)c(F)c1)C(=O)Nc1ccc([N+](=O)[O-])c(C(F)(F)F)c1 (stereo not drawn)
solubility [1]: Soluble
IC50 [2]: 18.9 µM
solubility [3]: Soluble
IC50 [4]: 21.6 µM
IC50 [5]: 14.5 µM
IC50 [6]: 18.5 µM
